From patent US5756521A, “Chroman-2-ylmethylamino derivatives” (American Home Products Corporation, priority 1997, dated 1998)

Experiments:
[1] = molecular target: T1, dopamine D-2 receptor (Rattus norvegicus, UniProt P61169); assay: Dopamine D-2 receptor affinity, 3H-spiroperidol binding in homogenized limbic brain tissue
T1 construct: homogenized limbic brain tissue; from tissue
Method: High affinity for the dopamine D-2 receptor was established by the standard experimental test procedure of Fields, et al., Brain Res., 136, 578 (1977) and Yamamura et al., eds., Neurotransmitter Receptor Binding, Raven Press, N.Y. (1978) wherein homogenized limbic brain tissue is incubated with ^3 H-spiroperidol (Spiper.) and various concentrations of test compound, filtered and washed and shaken with Hydrofluor scintillation cocktail (National Diagnostics) and counted in a Packard 460 CD scintillation counter.

[2] = molecular target: T2, dopamine autoreceptor (D2, 3H-quinpirole) (Rattus norvegicus, UniProt P61169); assay: Dopamine autoreceptor affinity, 3H-quinpirole binding in homogenized rat striatal brain tissue; settings: rat striatal brain tissue homogenate, read-out: IC50 (nM), D2, (Quin.)
T2 construct: homogenized rat striatal brain tissue; from tissue; host or cells: rat striatal brain tissue
T2 sequence (P61169 whole entry): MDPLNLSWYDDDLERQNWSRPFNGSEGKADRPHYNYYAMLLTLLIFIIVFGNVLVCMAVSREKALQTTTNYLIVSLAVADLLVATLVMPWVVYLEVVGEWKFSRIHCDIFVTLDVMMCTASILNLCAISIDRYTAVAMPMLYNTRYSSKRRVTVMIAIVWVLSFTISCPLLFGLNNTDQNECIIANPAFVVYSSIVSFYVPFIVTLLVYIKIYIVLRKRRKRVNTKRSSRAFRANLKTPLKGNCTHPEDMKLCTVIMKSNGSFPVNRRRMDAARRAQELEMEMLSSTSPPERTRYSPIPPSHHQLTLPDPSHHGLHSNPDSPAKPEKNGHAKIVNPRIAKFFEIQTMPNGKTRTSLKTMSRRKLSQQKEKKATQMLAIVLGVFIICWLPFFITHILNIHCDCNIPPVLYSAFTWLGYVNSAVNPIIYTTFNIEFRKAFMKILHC
Method: Affinity for the dopamine autoreceptor was established by a modification of the standard experimental test procedure of Seemen and Schaus, European Journal of Pharmacology 203: 105-109, 1991, wherein homogenized rat striatal brain tissue is incubated with ^3 H-quinpirole (Quin.) and various concentrations of test compound, filtered and washed and counted in a Betaplate scintillation counter.

T1 sequence (P61169 whole entry): as above

IC50 ([1]; 3H-spiroperidol, limbic brain tissue homogenate, read-out: IC50 (nM), (Spiper.)): 1230 nM | ratio ([1]; ratio of IC50 (Spiper.) to IC50 (Quin.), LowAg/HighAg): 557 | IC50 [2]: 2.21 nM
SMILES: Oc1ccc2c(c1)OC(CNCc1ccccn1)CC2 (stereo not drawn) [Example 1]
